In patent US7030150B2, “Benzimidazole compounds and antiviral uses thereof” (Trimeris, Inc., priority 2001, dated 2006):

Assays:
rhinoviruses = conditions: cited from earlier work
picornaviruses = conditions: cited from earlier work
poliovirus type 1 = conditions: monkey kidney and HeLa cell cultures; cited from earlier work

Structure (SMILES)	CC50 (uninfected Hep2 cells)	also measured
COc1ccc2[nH]c(C(O)C(O)c3nc4cc(OC)ccc4[nH]3)nc2c1 (centres unmarked) [1,2-(5-methoxy-2-benzimidazole)-1,2-ethanediol]	–	inhibition of the cytopathic effect (rhinoviruses): 100%
OC(c1nc2ccccc2[nH]1)C(O)c1nc2ccccc2[nH]1 (centres unmarked) [1,2-bis(2-benzimidazole)-1,2-ethanediol]	–	antiviral activity against an assortment of picornaviruses (picornaviruses): active
OC(c1ccccc1)c1nc2ccccc2[nH]1 (stereo not drawn) [2-(α-hydroxybenzyl)benzimidazole]	–	antiviral activity against an assortment of picornaviruses (picornaviruses): active; inhibition of poliovirus type 1 (poliovirus type 1): inhibits
c1ccc2[nH]cnc2c1 [benzimidazole]	–	antiviral activity against an assortment of picornaviruses (picornaviruses): active
Fc1cccc(F)c1CNCc1nc2ccccc2n1Cc1nc2ccccc2[nH]1 [compound 161]	≥ 100 µM	–
CCN(CC)CCNCc1nc2ccccc2n1Cc1nc2ccccc2[nH]1 [compound 162]	≥ 100 µM	–
Clc1ccc(CCNCc2nc3ccccc3n2Cc2nc3ccccc3[nH]2)cc1 [compound 163]	16 µM	–
CNCc1nc2ccccc2n1Cc1nc2ccccc2[nH]1 [compound 164]	≥ 100 µM	–
c1ccc2[nH]c(Cn3c(CNC4CCCCC4)nc4ccccc43)nc2c1 [compound 165]	≥ 100 µM	–
O=c1[nH]ccn1CCNCc1nc2ccccc2n1Cc1nc2ccccc2[nH]1 [compound 166]	≥ 100 µM	–
Fc1ccc(CCNCc2nc3ccccc3n2Cc2nc3ccccc3[nH]2)cc1 [compound 167]	≥ 100 µM	–
c1ccc(CC(NCc2nc3ccccc3n2Cc2nc3ccccc3[nH]2)c2ccccc2)cc1 (centres unmarked) [compound 168]	≥ 100 µM	–
c1ccc2[nH]c(Cn3c(CNCc4ccc5c(c4)OCO5)nc4ccccc43)nc2c1 [compound 169]	≥ 100 µM	–
c1ccc2[nH]c(Cn3c(CNCC4CCCO4)nc4ccccc43)nc2c1 (centres unmarked) [compound 170]	≥ 100 µM	–
Clc1ccc(CNCc2nc3ccccc3n2Cc2nc3ccccc3[nH]2)cc1Cl [compound 171]	58 µM	–
CN1CCCC1CCNCc1nc2ccccc2n1Cc1nc2ccccc2[nH]1 (centres unmarked) [compound 172]	95 µM	–
Fc1cc(F)cc(CNCc2nc3ccccc3n2Cc2nc3ccccc3[nH]2)c1 [compound 173]	6.4 µM	–
CN(C)CCCNCc1nc2ccccc2n1Cc1nc2ccccc2[nH]1 [compound 174]	≥ 100 µM	–
COc1ccccc1CCNCc1nc2ccccc2n1Cc1nc2ccccc2[nH]1 [compound 175]	≥ 100 µM	–
CCCCC(CO)NCc1nc2ccccc2n1Cc1nc2ccccc2[nH]1 (centres unmarked) [compound 176]	≥ 100 µM	–

Structure (SMILES)	CC50 (uninfected Hep2 cells)	also measured
c1ccc2[nH]c(Cn3c(CNC4CCCC4)nc4ccccc43)nc2c1 [compound 177]	≥ 100 µM	–
c1ccc2c(NCc3nc4ccccc4n3Cc3nc4ccccc4[nH]3)cccc2c1 [compound 180]	14 µM	–
COc1cccc(CNCc2nc3ccccc3n2Cc2nc3ccccc3[nH]2)c1OC [compound 181]	≥ 100 µM	–
CCOCCCNCc1nc2ccccc2n1Cc1nc2ccccc2[nH]1 [compound 182]	≥ 100 µM	–
FC(F)(F)c1ccc(N2CCN(Cc3nc4ccccc4n3Cc3nc4ccccc4[nH]3)CC2)nc1 [compound 196]	78 µM	–
COc1ccc(N2CCN(Cc3nc4ccccc4n3Cc3nc4ccccc4[nH]3)CC2)cc1 [compound 197]	≥ 100 µM	–
O=C(c1ccco1)N1CCN(Cc2nc3ccccc3n2Cc2nc3ccccc3[nH]2)CC1 [compound 198]	≥ 100 µM	–
c1ccc2[nH]c(Cn3c(CN4CCCC4)nc4ccccc43)nc2c1 [compound 199]	≥ 100 µM	–
c1ccc2[nH]c(Cn3c(CN4CCC4)nc4ccccc43)nc2c1 [compound 200]	7.6 µM	–
C1=CCN(Cc2nc3ccccc3n2Cc2nc3ccccc3[nH]2)C1 [compound 201]	19 µM	–
C1=CCN(Cc2nc3ccccc3n2Cc2nc3ccccc3[nH]2)CC1 [compound 202]	≥ 100 µM	–
CCOC(=O)C1CCN(Cc2nc3ccccc3n2Cc2nc3ccccc3[nH]2)CC1 [compound 203]	≥ 100 µM	–
c1ccc(CC2=NCCN2Cc2nc3ccccc3n2Cc2nc3ccccc3[nH]2)cc1 [compound 204]	≥ 100 µM	–
CC1CC(C)CN(Cc2nc3ccccc3n2Cc2nc3ccccc3[nH]2)C1 (centres unmarked) [compound 205]	≥ 100 µM	–
CC1C=CC(C)N1Cc1nc2ccccc2n1Cc1nc2ccccc2[nH]1 (centres unmarked) [compound 207]	≥ 100 µM	–
OCC1CCCN1Cc1nc2ccccc2n1Cc1nc2ccccc2[nH]1 (centres unmarked) [compound 209]	≥ 100 µM	–
OCC1CCCCN1Cc1nc2ccccc2n1Cc1nc2ccccc2[nH]1 (centres unmarked) [compound 210]	8 µM	–
OCC1CCCN(Cc2nc3ccccc3n2Cc2nc3ccccc3[nH]2)C1 (centres unmarked) [compound 211]	32 µM	–
OCCC1CCCCN1Cc1nc2ccccc2n1Cc1nc2ccccc2[nH]1 (centres unmarked) [compound 213]	≥ 100 µM	–
c1ccc2[nH]c(Cn3c(CN4CCC5CCCCC5C4)nc4ccccc43)nc2c1 (centres unmarked) [compound 214]	≥ 100 µM	–

Structure (SMILES)	CC50 (uninfected Hep2 cells)	also measured
FC(F)(F)c1cnc(N2CCCN(Cc3nc4ccccc4n3Cc3nc4ccccc4[nH]3)CC2)c(Cl)c1 [compound 215]	≥ 100 µM	–
OCCOCCN1CCN(Cc2nc3ccccc3n2Cc2nc3ccccc3[nH]2)CC1 [compound 216]	9 µM	–
c1ccc2[nH]c(Cn3c(CN4CCC(C5CCNCC5)CC4)nc4ccccc43)nc2c1 [compound 217]	≥ 100 µM	–
FC(F)(F)c1cccc(N2CCN(Cc3nc4ccccc4n3Cc3nc4ccccc4[nH]3)CC2)c1 [compound 219]	≥ 100 µM	–
Oc1ccc(N2CCN(Cc3nc4ccccc4n3Cc3nc4ccccc4[nH]3)CC2)cc1 [compound 220]	≥ 100 µM	–
c1ccc2[nH]c(Cn3c(CN4CCSC4)nc4ccccc43)nc2c1 [compound 222]	≥ 100 µM	–
COc1cc2c(cc1OC)C(CC#N)N(Cc1nc3ccccc3n1Cc1nc3ccccc3[nH]1)CC2 (centres unmarked) [compound 223]	≥ 100 µM	–
O=C1c2ccccc2C(=O)N1Cc1nc2ccccc2n1Cc1nc2ccccc2[nH]1 [compound 226]	50 µM	–
Cc1ccc(N2CCN(Cc3nc4ccccc4n3Cc3nc4ccccc4[nH]3)CC2)c(C)c1 [compound 227]	≥ 100 µM	–
c1ccc2[nH]c(Cn3c(CN4CCC(N5CCCC5)CC4)nc4ccccc43)nc2c1 [compound 228]	60 µM	–
CCN1CCN(Cc2nc3ccccc3n2Cc2nc3ccccc3[nH]2)CC1 [compound 230]	≥ 100 µM	–
c1ccc(CN2CCN(Cc3nc4ccccc4n3Cc3nc4ccccc4[nH]3)CC2)cc1 [compound 231]	15 µM	–
O=C(OCc1ccccc1)N1CCCCN(Cc2nc3ccccc3n2Cc2nc3ccccc3[nH]2)CC1 [compound 232]	≥ 100 µM	–
c1ccc2[nH]c(Cn3c(CN4CCCCCCC4)nc4ccccc43)nc2c1 [compound 233]	≥ 100 µM	–
c1ccc2[nH]c(Cn3c(CN4CCC5CCCCC5C4)nc4ccccc43)nc2c1 (centres unmarked) [compound 234]	24 µM	–
O=C1C(=O)N(Cc2nc3ccccc3n2Cc2nc3ccccc3[nH]2)c2ccc(Br)cc21 [compound 235]	≥ 100 µM	–
O=C1C(=O)N(Cc2nc3ccccc3n2Cc2nc3ccccc3[nH]2)c2ccc([N+](=O)[O-])cc21 [compound 236]	≥ 100 µM	–
O=C1C(=O)N(Cc2nc3ccccc3n2Cc2nc3ccccc3[nH]2)c2ccc(F)cc21 [compound 237]	65 µM	–
